Source: PubChem BioAssay (NCI)
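Cells were grown in 96-well plates and exposed to each compound for 48 hours at five concentrations; endpoints were interpolated linearly between bracketing concentrations, or set to the highest concentration if not reached. TGI: concentration producing complete growth inhibition.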

Key:
Test in all cases: NCI anticancer screen, dose series, 48 h
SN12C renal = system: SN12C renal
ACHN renal = system: ACHN renal
COLO 205 colon = system: COLO 205 colon
HCC-2998 colon = system: HCC-2998 colon
SF-295 CNS = system: SF-295 CNS
HT29 colon = system: HT29 colon
UO-31 renal = system: UO-31 renal
SK-MEL-2 melanoma = system: SK-MEL-2 melanoma

Row | SMILES | TGI (SN12C renal) [µM] | TGI (ACHN renal) [µM] | TGI (COLO 205 colon) [µM] | TGI (HCC-2998 colon) [µM] | TGI (SF-295 CNS) [µM] | TGI (HT29 colon) [µM] | TGI (UO-31 renal) [µM] | TGI (SK-MEL-2 melanoma) [µM]
1 | Cc1cc(S(=O)(=O)Nc2nc3cc(-c4ccc(Cl)cc4)sc3c(=O)n2N)c(S)cc1Cl | > 100 | 98.7 | 56.1 | > 100 | > 100 | > 100 | > 100 | > 100
2 | COc1cc(OC)c(C2c3cc4c(cc3OC(N3CCCC3)C2C)OCO4)c(OC)c1 (stereo not drawn) | 47.9 | 30.7 |  | 21.9 | 36.1 | 28.7 | 25.8 | 57.7
3 | N#CC1=C(N)N(c2ccccc2)C(c2ccccc2)C1(C#N)C#N (stereo not drawn) | 36.6 | 40.7 | 36.1 | 30.2 | 61.1 | 30.2 | 34.8 | 42.9
4 | Cn1c2ccccc2c(=NNc2cccc(C(=O)O)c2)c2ccccc21 | 30.3 | 35.5 | 28.5 | 14.9 | 58.5 | 14.7 | 46.3 | 35.4
5 | CC(=O)OCC1OC(n2c3c(cc(C#N)c2=S)CCCCC3)C(OC(C)=O)C(OC(C)=O)C1OC(C)=O (stereo not drawn) | > 100 | > 100 | > 100 | > 100 | > 100 | > 100 | > 100 | > 100
6 | COC(=O)C1=C(C)NC(C)=C(C(=O)OC)C1c1nc2sccn2c1[N+](=O)[O-] | > 100 | > 100 | > 100 | > 100 | > 100 |  | > 100 | > 100
7 | CC(C)(Cl)C(Br)CCC(=CCCl)CBr (mixture of isomers) | 7.06 | 7.85 | 5.15 | 4.22 | 13 | 3.55 | 3.42 | 9.93
8 | CCOc1ccc(/C=C2/C(=O)N=C(NC(C)=O)N2C)cc1 | > 100 | > 100 | > 100 | > 100 | > 100 | > 100 | > 100 | > 100
9 | COc1ccc(/C=C2\N=C(SC)NC2=O)cc1 | > 100 |  | > 100 | > 100 | > 100 | > 100 | 45.3 | > 100
10 | C#C[C@]1(O)CC[C@H]2[C@@H]3CCC4=C/C(=N/OC(=O)c5cccc6c(=O)c7ccccc7[nH]c56)CC[C@@H]4[C@H]3CC[C@@]21C | > 100 | > 100 | 77.1 | > 100 | > 100 | > 100 | > 100 | > 100
11 | [N-]=[N+]=NC1=C(c2ccccn2)C(=O)c2cccc3cccc1c23 | > 100 | > 100 | > 100 | > 100 | > 100 | > 100 | 36.1 | > 100
12 | N#Cc1c(Cl)cc(Cl)n2c1nc1ccccc12 | 42.1 | 6.65 | 21.2 | 8.44 | 32.4 | 23.6 | 13.5 | 33.4
13 | Cn1c(COC(=O)Nc2ccccc2)c(COC(=O)Nc2ccccc2)c2ccc3cc(Cl)c(Cl)cc3c21 | 16.4 | 29 | 14.5 | 15.8 | 64.2 | 23.6 | 26.5 | 17.9
14 | O=C(O)c1ccc(OCc2nc3cc(C(F)(F)F)ccc3nc2-c2ccccc2)cc1 | > 100 | 67.6 | 37.8 | > 100 | > 100 | > 100 | 39 | > 100
15 | CC1=NNC(=O)C1C(CC(=O)c1c[nH]c2ccccc12)C(=O)O (stereo not drawn) | > 100 | > 100 | > 100 |  | > 100 | > 100 | > 100 | > 100
16 | O=C1C(=Cc2ccccc2O)N=C(c2ccccc2)N1n1c(-c2ccccc2)nc2ccccc2c1=O | > 100 | 89.3 | > 100 | 89.2 | 56.8 | > 100 | 86.5 | 
17 | CCC/C(Cl)=N\OC(=O)Nc1ccc(OC(F)(F)F)cc1 | 21.1 | 4.41 | 3.54 | 38.6 | 31.7 | 42.4 | 23.3 | 32.9
18 | Nc1ccc(C(=O)N2CCC[C@H]2CO)c(N)c1 | > 100 | > 100 | > 100 | > 100 | > 100 | > 100 | > 100 | > 100
19 | O=C1c2cccnc2-c2nccc3c2c1nc1cc(Br)ccc13 | 0.412 | 0.609 | 2.12 | 1.63 | 0.72 | 2.45 | 0.568 | 
20 | CN(C)c1ccc(C2SCC(=O)N2c2ccc(Oc3ccc(Cl)cc3)c(Cl)c2)cc1 (stereo not drawn) | 50 | > 100 | 36.2 | 52.4 |  | 39.8 | 29.6 | 54.1
21 | CC1CCCC(CC(=O)O)(CC(=O)O)C1 (stereo not drawn) | > 100 | > 100 | > 100 | > 100 |  | > 100 | > 100 | > 100
22 | CSc1ncnc2c1ncn2CCC#N | > 100 | > 100 | > 100 |  | > 100 | > 100 | > 100 | 
23 | C=C1C(=O)C=C[C@]2(C)CC[C@H]3C(=C)C(=O)O[C@@H]3[C@@H]12 | 7.49 | 9.59 | 2.24 |  | 30.6 | 3.24 | 9 | 6.99
24 | CCNC(=O)Nc1cccc(NC(=O)NCC)n1 | > 100 | > 100 | > 100 | > 100 | > 100 | > 100 | > 100 | 
25 | CN1COCc2c1ccc1cc3ccc4c(c3nc21)COCN4S(C)(=O)=O | > 100 | > 100 | > 100 | > 100 | > 100 | > 100 | > 100 | 
26 | Cc1nc2sc3ccccc3n2c(=O)c1N=Nc1ccc(Cl)cc1 | > 100 | > 100 | > 100 |  | > 100 | > 100 |  | > 100
